Source: patent US11161856B2 (H. Lundbeck A/S, priority 2017, dated 2021)

Legend:
ABHD6 = target: T1, ABHD6 (Mus musculus, UniProt Q8R2Y0); assay: In vitro competitive activity-based protein profiling, mouse brain proteome (ABHD6); format: biochemical; settings: for % Inh ABHD6 Brain (Mouse, μM): mouse brain proteome, concentration not given (μM)
T1 construct: Brain; from tissue; host or cells: mouse brain proteome
T1 sequence (Q8R2Y0 1-336): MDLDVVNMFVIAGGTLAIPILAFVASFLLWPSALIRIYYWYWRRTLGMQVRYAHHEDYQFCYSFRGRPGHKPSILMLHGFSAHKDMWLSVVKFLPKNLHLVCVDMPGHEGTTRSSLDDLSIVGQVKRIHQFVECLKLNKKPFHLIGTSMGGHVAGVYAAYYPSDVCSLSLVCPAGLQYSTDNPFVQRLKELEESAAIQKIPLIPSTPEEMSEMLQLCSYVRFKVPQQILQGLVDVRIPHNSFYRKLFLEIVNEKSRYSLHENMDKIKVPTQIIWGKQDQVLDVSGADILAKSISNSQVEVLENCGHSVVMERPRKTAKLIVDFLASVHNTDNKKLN
Description: [The source words this procedure for another target and reports this target under the same test.] In Vitro Competitive Activity-Based Protein Profiling.
Proteomes (human prefrontal cortex or cell membrane fractions) (50 μL, 1.0 mg/mL total protein concentration) were preincubated with varying concentrations of inhibitors at 37° C. After 30 min, FP-Rh or HT-01 (1.0 μL, 50 μM in DMSO) was added and the mixture was incubated for another 30 min at room temperature. Reactions were quenched with SDS loading buffer (15 μL-4×) and run on SDS-PAGE.

MGLL = target: T2, MGLL (Mus musculus, UniProt O35678); assay: In vitro competitive activity-based protein profiling, mouse brain proteome (MGLL); format: biochemical; set-up: IC50 MGLL Brain (Mouse, μM): scale not given here; settings: for % Inh MGLL Brain (Mouse, μM): concentration not given (μM)
T2 construct: Brain; from tissue; host or cells: mouse brain proteome
T2 sequence (O35678 1-303): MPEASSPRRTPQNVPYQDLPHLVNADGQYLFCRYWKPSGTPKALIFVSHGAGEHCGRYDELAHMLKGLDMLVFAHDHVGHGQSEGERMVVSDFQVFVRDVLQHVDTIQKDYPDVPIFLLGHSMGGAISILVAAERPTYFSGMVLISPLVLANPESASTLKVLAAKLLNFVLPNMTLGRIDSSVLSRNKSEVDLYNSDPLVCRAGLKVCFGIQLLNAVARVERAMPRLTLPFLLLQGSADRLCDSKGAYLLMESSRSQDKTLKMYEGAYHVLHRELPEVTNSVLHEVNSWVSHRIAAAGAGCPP

Row | SMILES | % Inh ABHD6 Brain (Mouse, μM) (ABHD6) | % Inh MGLL Brain (Mouse, μM) (MGLL) | IC50 MGLL Brain (Mouse, μM) (MGLL) | IC50 (ABHD6; mouse proteome)
1 | O=C(OC(C(F)(F)F)C(F)(F)F)N1CC2(CCN(Cc3cccc(N4CCCC4)c3)CC2)C1 [Example 77, 1,1,1,3,3,3-Hexafluoropropan-2-yl 7-(3-(pyrrolidin-1-yl)benzyl)-2,7-diazaspiro[3.5]nonane-2-carboxylate] | ### (### is ≥75%) | ## (## is between 25 and 75%) | – | –
2 | O=C(OC(C(F)(F)F)C(F)(F)F)N1CCC2(CC1)CN(Cc1cccc(F)c1)C2 [Example 97, 1,1,1,3,3,3-Hexafluoropropan-2-yl 2-(3-fluorobenzyl)-2,7-diazaspiro[3.5]nonane-7-carboxylate] | ### (### is ≥75%) | ### (### is ≥75%) | – | –
3 | O=C(OC(C(F)(F)F)C(F)(F)F)N1CCC2(CC1)CN(Cc1c(Cl)cccc1N1CCCCC1)C2 [Example 45, 1,1,1,3,3,3-Hexafluoropropan-2-yl 2-(2-chloro-6-(piperidin-1-yl)benzyl)-2,7-diazaspiro[3,5]nonane-7-carboxylate] | ### (### is ≥75%) | ### (### is ≥75%) | – | –
4 | CN1CC2(CCN(c3cc(Cl)ccc3CN3CCN(C(=O)OC(C(F)(F)F)C(F)(F)F)CC3)C2)C1 [Example 169, 1,1,1,3,3,3-Hexafluoropropan-2-yl 4-(4-chloro-2-(2-methyl-2,6-diazaspiro[3.4]octan-6-yl)benzyl)piperazine-1-carboxylate] | # (# is ≤25%) | ### (### is ≥75%) | – | –
5 | CC(=O)N1CCC2(CCN(c3ccccc3CN3CCN(C(=O)OC(C(F)(F)F)C(F)(F)F)CC3)C2)C1 (centres unmarked) [Example 166, 1,1,1,3,3,3-Hexafluoropropan-2-yl 4-(2-(7-acetyl-2,7-diazaspiro[4.4]nonan-2-yl)benzyl)piperazine-1-carboxylate] | # (# is ≤25%) | ### (### is ≥75%) | – | –
6 | CC(=O)N1CCCc2cccc(CN3CC4(CCN(C(=O)OC(C(F)(F)F)C(F)(F)F)CC4)C3)c21 [Example 15, 1,1,1,3,3,3-Hexafluoropropan-2-yl 2-((1-acetyl-1,2,3,4-tetrahydroquinolin-8-yl)methyl)-2,7-diazaspiro[3.5]nonane-7-carboxylate] | ### (### is ≥75%) | ### (### is ≥75%) | * * * | –
7 | CS(=O)(=O)N1CCC2(CCN(c3cc(Cl)ccc3CN3CCN(C(=O)OC(C(F)(F)F)C(F)(F)F)CC3)C2)CC1 [Example 30, 1,1,1,3,3,3-Hexafluoropropan-2-yl 4-(4-chloro-2-(8-(methylsulfonyl)-2,8-diazaspiro[4.5]decan-2-yl)benzyl)piperazine-1-carboxylate] | # (# is ≤25%) | ### (### is ≥75%) | * * * | –
8 | CC(=O)N1CCC2(CC1)CN(c1cc(Cl)ccc1CN1CCN(C(=O)OC(C(F)(F)F)C(F)(F)F)CC1)C2 [Example 198, 1.1.1,3,3,3-Hexafluoropropan-2-yl 4-(2-(7-acetyl-2,7-diazaspiro[3.5]nonan-2-yl)-4-chlorobenzyl)piperazine-1-carboxylate] | # (# is ≤25%) | ### (### is ≥75%) | – | –
9 | CC(=O)N1CCC2(CC1)CCN(c1cc(Cl)ccc1CN1CCN(C(=O)OC(C(F)(F)F)C(F)(F)F)CC1)C2 [Example 29, 1,1,1,3,3,3-Hexafluoropropan-2-yl 4-(2-(8-acetyl-2,8-diazaspiro[4.5]decan-2-yl)-4-chlorobenzyl)piperazine-1-carboxylate] | # (# is ≤25%) | ### (### is ≥75%) | * * * | –
10 | CS(=O)(=O)N1CCC2(CCN(c3ccccc3CN3CCN(C(=O)OC(C(F)(F)F)C(F)(F)F)CC3)C2)C1 (centres unmarked) [Example 165, 1,1,1,3,3,3-Hexafluoropropan-2-yl 4-(2-(7-(methylsulfonyl)-2,7-diazaspiro[4.4]nonan-2-yl)benzyl)piperazine-1-carboxylate] | # (# is ≤25%) | ### (### is ≥75%) | – | –
11 | CCN1CC2(CCN(c3cc(C(F)(F)F)ccc3CN3CCN(C(=O)OC(C(F)(F)F)C(F)(F)F)CC3)C2)C1 [Example 184, 1,1,1,3,3,3-Hexafluoropropan-2-yl 4-(2-(2-ethyl-2,6-diazaspiro[3,4]octan-6-yl)-4-(trifluoromethyl)benzyl) piperazine-1-carboxylate] | # (# is ≤25%) | ### (### is ≥75%) | – | –
12 | CS(=O)(=O)N1CC2(CCN(c3cc(C(F)(F)F)ccc3CN3CCN(C(=O)OC(C(F)(F)F)C(F)(F)F)CC3)C2)C1 [Example 186, 1,1,1,3,3,3-Hexafluoropropan-2-yl 4-(2-(2-(methylsulfonyl)-2,6-diazaspiro[3,4]octan-6-yl)-4-(trifluoromethyl)benzyl) piperazine-1-carboxylate] | # (# is ≤25%) | ### (### is ≥75%) | – | –
13 | O=C(OC(C(F)(F)F)C(F)(F)F)N1CCC2(CC1)CN(Cc1c(N3CCCCC3)cccc1C(F)(F)F)C2 [Example 41, 1,1,1,3,3,3-Hexafluoropropan-2-yl 2-(2-(piperidin-1-yl)-6-(trifluoromethyl)benzyl)-2,7-diazaspiro[3.5]nonane-7-carboxylate] | ## (## is between 25 and 75%) | ### (### is ≥75%) | – | 100 to 1000 nM
14 | COc1cccc(CN2CC3(CCN(C(=O)OC(C(F)(F)F)C(F)(F)F)CC3)C2)c1 [Example 87, 1,1,1,3,3,3-Hexafluoropropan-2-yl 2-(3-methoxybenzyl)-2,7-diazaspiro[3.5]nonane-7-carboxylate] | ### (### is ≥75%) | ### (### is ≥75%) | – | –
15 | O=C(OC(C(F)(F)F)C(F)(F)F)N1CCC2(CC1)CN(Cc1ccc(N3CCOCC3)cc1)C2 [Example 81, 1,1,1,3,3,3-Hexafluoropropan-2-yl 2-(4-morpholinobenzyl)-2,7-diazaspiro[3.5]nonane-7-carboxylate] | ### (### is ≥75%) | ### (### is ≥75%) | – | –
16 | O=C(OC(C(F)(F)F)C(F)(F)F)N1CCC2(CC1)CN(Cc1ccc(C(F)(F)F)cc1)C2 [Example 69, 1,1,1,3,3,3-Hexafluoropropan-2-yl 2-(4-(trifluoromethyl)benzyl)-2,7-diazaspiro[3,5]nonane-7-carboxylate] | ### (### is ≥75%) | ### (### is ≥75%) | – | –
17 | CS(=O)(=O)N1CCN(c2cccc(C(F)(F)F)c2CN2CC3(CCN(C(=O)OC(C(F)(F)F)C(F)(F)F)CC3)C2)CC1 [Example 53, 1,1,1,3,3,3-Hexafluoropropan-2-yl 2-(2-(4-(methylsulfonyl)piperazin-1-yl)-6-(trifluoromethyl)benzyl)-2,7-diazaspiro[3.5]nonane-7-carboxylate] | ### (### is ≥75%) | ### (### is ≥75%) | – | –
